Structures can show the parent of a compound that is named as a salt.
Key:
[1] = target: human LSD1 (Homo sapiens, UniProt O60341); test: In vitro enzyme activity screening against LSD1 (HRP/Amplex Red fluorescence coupling enzyme method); format: biochemical; conditions: human LSD1, histone H3K4me peptide substrate 20 μM
Method: The purpose of this test was to detect the in vitro inhibitory activity of the compounds against LSD1. The enzyme used in this test was human LSD1, the standard substrate was histone H3K4me peptide (20 μM), the fluorescence coupling enzyme method was used to determine the activity of the compound by combining horseradish peroxidase (HRP) and fluorescent reagent Amplex Red to detect the H2O2 generation as a result of the reaction of LSD1. Compounds were tested in 10-dose IC50 mode with a 3-fold serial dilution starting at 10 μM. The enzyme and […] to start the reaction. Fluorescence detector: Envision, excitation wavelength: Ex/Em=530/590 […]

[2] = system: NCI-H1417 cells; test: Antiproliferation activity on NCI-H1417 cells (CellTiter-Glo, 10 days); format: cell-based, human; conditions: incubated for 10 days
Method: Experimental purpose: to detect the antiproliferation activity of the compounds on NCI-H1417 cells.
Experimental materials: RPMI 1640 culture medium, fetal bovine serum, Promega CellTiter-Glo reagent. NCI-H1417 cell line purchased from ATCC. Envision multi-label reader (PerkinElmer).
Experimental method: the compounds were dissolved to 10 mM, then the compounds were diluted 5 times with DMSO in a compound plate, the compounds were diluted 3-fold with Bravo from a starting concentration of 2 mM to the 10th concentration, 250 nL of the solutions were transferred to the upper and lower duplicate wells on a blank 384 cell plate by Echo transfer plate, cell suspension of per well/1000 cells/50 μL was added to the transferred 250 nL DMSO/compound, the compounds were diluted 200-fold, i.e., the initial action concentration was 10 μM. The cell plate was placed in a carbon dioxide incubator and incubated for 10 days. 25 μL of Promega CellTiter-Glo reagent was added to each well on the cell plate and was shaken at room temperature for 10 minutes to stabilize the luminescence signal. Readings were performed by PerkinElmer Envision multi-label analyzer.
Data analysis: the equation (Max-Ratio)/(Max-Min)*100% was used to convert the original data into the inhibition rate, the value of IC50 can be obtained by curve fitting of four-parameters (the 205 mode in XLFITS, iDBS).

[3] = system: MV-4-11 cells; test: Antiproliferation activity on MV-4-11 cells (CellTiter-Glo, 6 days); format: cell-based; conditions: incubated for 6 days
Excerpt: Experimental purpose: to detect the antiproliferation activity of the compound to be tested on MV-4-11 cells.
Experimental materials: IMDM culture medium, fetal bovine serum, penicillin/streptomycin antibiotics purchased from Wisent. CellTiter-Glo (chemiluminescent cell viability assay reagent) reagents purchased from Promega. MV-4-11 cell line was purchased from Nanjing Cobioer Co., Ltd. Nivo Multi-Marker Analyzer (PerkinElmer).
Experimental method: MV-4-11 cells were planted in a white 96-well plate, 80 μL of cell suspension per well, which contained 6000 MV-4-11 cells. The cell plate was placed in a carbon dioxide incubator for overnight culture.
The compounds to be tested were diluted 5-fold with a pipet until the 8th concentration, i.e., diluted from 2 mM to 25.6 nM, double duplicate well experiment was set. 78 μL of the culture medium was added to an intermediate plate, and then 2 μL per well of the serially diluted compounds were transferred to the corresponding positions on the intermediate plate, after mixing, 20 μL per well was transferred to the cell plate. The cell plate was incubated in a carbon dioxide incubator for 6 days. Another cell plate was prepared and the signal value on the day of dosing was read as the maximum value (Max value in the equation below) to participate in the data analysis. 25 μL of the chemiluminescent cell viability assay reagent was added to each well of this cell plate, which was incubated at room temperature for 10 minutes to stabilize the luminescence signal. The multi-label analyzer was used for reading.
Data analysis: the equation (Sample-Min)/(Max-Min)*100% was used to convert the original data into the inhibition rate, the IC50 value can be obtained by curve fitting of four-parameters (“log(inhibitor) vs. response—Variable slope” mode in GraphPad Prism)).

[4] = target: T1, hERG potassium ion channel (Homo sapiens, UniProt Q12809); test: Inhibition test for hERG potassium ion channel (automatic patch-clamp, CHO-hERG cells); format: cell-based; conditions: Qpatch, highest test concentration 40 μM
T1 construct: expressed in transfected cells; host or cells: CHO-hERG cells
Method: Experimental purpose: to detect the effect of the embodiments to be tested on the potassium ion channel of hERG by using the fully automatic patch-clamp method.
6.1.1 CHO-hERG cells were cultured in a 175 cm^2 culture flask, after the cell density was increased to 60-80%, the culture medium was removed, the cells were washed once with 7 mL PBS (Phosphate Buffered Saline), and then 3 mL digestive fluid was added for digestion.
6.1.2 After the digestion was complete, 7 mL of culture medium was added for neutralization, then the mixture was centrifuged, the supernatant was aspirated, and then 5 mL of culture medium was added for resuspention to ensure that the cell density was 2-5×10^6/mL.
The single-cell high-impedance sealing and the whole-cell mode formation process were all automatically completed by the Qpatch instrument of the Shanghai Institute of Materia Medica, Chinese Academy of Sciences. After the whole-cell recording mode was obtained, the cells were clamped at −80 millivolts. […] The data were recorded for 2 minutes, then extracellular fluid was administrated, and then the data were recorded for 5 minutes. […]
The experimental data were analyzed by XLFit software.

T1 sequence (Q12809 whole entry): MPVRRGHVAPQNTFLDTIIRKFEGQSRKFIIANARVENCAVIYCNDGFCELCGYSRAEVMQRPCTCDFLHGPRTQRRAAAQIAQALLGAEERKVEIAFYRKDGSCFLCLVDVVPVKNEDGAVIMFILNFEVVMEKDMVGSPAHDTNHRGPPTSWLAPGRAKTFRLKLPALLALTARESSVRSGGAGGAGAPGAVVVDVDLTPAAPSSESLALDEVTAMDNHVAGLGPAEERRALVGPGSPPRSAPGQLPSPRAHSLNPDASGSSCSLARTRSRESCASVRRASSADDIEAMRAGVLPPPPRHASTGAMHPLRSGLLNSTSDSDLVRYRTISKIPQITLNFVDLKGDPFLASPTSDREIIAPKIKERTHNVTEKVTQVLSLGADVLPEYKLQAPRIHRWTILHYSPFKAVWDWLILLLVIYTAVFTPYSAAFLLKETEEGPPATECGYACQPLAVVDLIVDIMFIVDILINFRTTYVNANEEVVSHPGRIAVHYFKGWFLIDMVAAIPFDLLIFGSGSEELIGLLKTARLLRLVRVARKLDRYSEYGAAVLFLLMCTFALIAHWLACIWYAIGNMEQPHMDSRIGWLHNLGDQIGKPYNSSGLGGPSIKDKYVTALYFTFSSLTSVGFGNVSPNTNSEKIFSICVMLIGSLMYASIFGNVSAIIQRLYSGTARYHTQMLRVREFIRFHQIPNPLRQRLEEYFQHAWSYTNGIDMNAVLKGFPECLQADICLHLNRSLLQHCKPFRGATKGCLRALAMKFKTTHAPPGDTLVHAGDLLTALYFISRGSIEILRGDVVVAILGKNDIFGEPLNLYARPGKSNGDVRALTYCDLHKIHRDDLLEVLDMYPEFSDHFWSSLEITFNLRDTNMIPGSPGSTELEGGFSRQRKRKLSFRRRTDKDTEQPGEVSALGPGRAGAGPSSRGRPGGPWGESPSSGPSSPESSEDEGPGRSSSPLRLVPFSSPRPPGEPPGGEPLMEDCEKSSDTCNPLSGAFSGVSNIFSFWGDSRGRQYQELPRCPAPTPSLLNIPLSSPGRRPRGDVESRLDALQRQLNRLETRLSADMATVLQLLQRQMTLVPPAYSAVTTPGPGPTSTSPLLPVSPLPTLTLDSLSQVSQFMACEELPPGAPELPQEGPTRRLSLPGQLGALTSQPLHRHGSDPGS

IC50 [1]: 329 nM
IC50 [2]: 9.11 nM
IC50 [3]: 3.21 nM
Structure (SMILES): O=C(O)c1ccc(CN2CCC3(CC2)CC(N[C@@H]2C[C@H]2c2ccccc2)CO3)cc1 (stereo partly shown) [Hydrochloride of the compound 6]
IC50 [4]: > 40 µM

— patent US11649245B2, “Cyclopropylamine compound as LSD1 inhibitor and use thereof” (HELIOEAST PHARMACEUTICAL CO., LTD., priority 2018, dated 2023)
